Experimental data from ChEMBL document CHEMBL1146960, “Synthesis and anticancer activity of thiosemicarbazones” (Bioorg Med Chem Lett, 2006).

Experiments:
[1] = test system: SGC-7901; test: Antitumor activity against SGC7901 cell line at 1 umol/L by SRB method; assay type: functional; conditions: Homo sapiens
[2] = test system: SGC-7901; test: Antitumor activity against SGC7901 cell line at 0.1 umol/L by SRB method; assay type: functional; conditions: Homo sapiens
[3] = test system: SGC-7901; test: Antitumor activity against SGC7901 cell line at 0.01 umol/L by SRB method; assay type: functional; conditions: Homo sapiens
[4] = test system: SGC-7901; test: Antitumor activity against SGC7901 cell line at 100 umol/L by SRB method; assay type: functional; conditions: Homo sapiens
[5] = test system: SGC-7901; test: Antitumor activity against SGC7901 cell line at 10 umol/L by SRB method; assay type: functional; conditions: Homo sapiens
[6] = test system: P388; test: Antitumor activity against P388 cell line at 100 umol/L by MTT method; assay type: functional; conditions: Mus musculus
[7] = test system: P388; test: Antitumor activity against P388 cell line at 10 umol/L by MTT method; assay type: functional; conditions: Mus musculus
[8] = test system: P388; test: Antitumor activity against P388 cell line at 1 umol/L by MTT method; assay type: functional; conditions: Mus musculus
[9] = test system: P388; test: Antitumor activity against P388 cell line at 0.1 umol/L by MTT method; assay type: functional; conditions: Mus musculus
[10] = test system: P388; test: Antitumor activity against P388 cell line at 0.01 umol/L by MTT method; assay type: functional; conditions: Mus musculus
[11] = test system: A549; test: Antitumor activity against A549 cell line at 0.1 umol/L by SRB method; assay type: functional; conditions: Homo sapiens
[12] = test system: A549; test: Antitumor activity against A549 cell line at 10 umol/L by SRB method; assay type: functional; conditions: Homo sapiens
[13] = test system: A549; test: Antitumor activity against A549 cell line at 1 umol/L by SRB method; assay type: functional; conditions: Homo sapiens
[14] = test system: SGC-7901; test: Antitumor activity against SGC7901 cell line at 50 nmol/L by SRB method; assay type: functional; conditions: Homo sapiens
[15] = test system: SGC-7901; test: Antitumor activity against SGC7901 cell line at 25 nmol/L by SRB method; assay type: functional; conditions: Homo sapiens
[16] = test system: SGC-7901; test: Antitumor activity against SGC7901 cell line at 12.5 nmol/L by SRB method; assay type: functional; conditions: Homo sapiens
[17] = test system: SGC-7901; test: Antitumor activity against SGC7901 cell line at 6.25 nmol/L by SRB method; assay type: functional; conditions: Homo sapiens
[18] = test system: SGC-7901; test: Antitumor activity against SGC7901 cell line by SRB method; assay type: functional, cell-based; conditions: Homo sapiens

Row | IC50 [18] | Compound | inhibition at 1 µM [1] | inhibition at 0.1 µM [2] | inhibition at 0.01 µM [3] | inhibition at 100 µM [4] | inhibition at 10 µM [5] | inhibition at 100 µM [6] | inhibition at 10 µM [7] | inhibition at 1 µM [8] | inhibition at 0.1 µM [9] | inhibition at 0.01 µM [10] | inhibition at 0.1 µM [11] | inhibition at 10 µM [12] | inhibition at 1 µM [13] | inhibition at 0.05 µM [14] | inhibition at 0.025 µM [15] | inhibition at 0.0125 µM [16] | inhibition at 0.00625 µM [17]
1 | – | COc1ccc(N/C(S)=N/N=C(/C)c2cccs2)cc1 | 0% | 0% | 0% | 65.1% | 29.2% | 25.9% | 5.2% | 6.9% | 3.6% | 0% | – | – | – | – | – | – | –
2 | – | C/C(=N/N=C(\S)N1CCN(c2ccccn2)CC1)c1nccs1 | 60.8% | 14.3% | – | – | 92.5% | – | 94.5% | 74.3% | 73.5% | – | 15.6% | 13.6% | 21.5% | – | – | – | –
3 | – | C/C(=N/N=C(\S)Nc1ccc(Cl)cc1)c1cccs1 | 0% | 0% | 0% | 56.7% | 12.7% | 21.6% | 9.9% | 0% | 0% | 0% | – | – | – | – | – | – | –
4 | – | CCn1cc(C(=O)O)c(=O)c2cc(F)c(N3CCN(/C(S)=N/N=C(/C)c4ccccc4)CC3)cc21 | – | – | – | – | – | – | 100% | 24.8% | 0% | – | 0% | 63.9% | 0.8% | – | – | – | –
5 | – | C/C(=N/N=C(\S)N1CCN(c2ccccn2)CC1)c1ccc([N+](=O)[O-])cc1 | – | – | – | – | – | – | 6.4% | 4.6% | 4.6% | – | 0% | 16.4% | 0% | – | – | – | –
6 | 32 nM | C/C(=N/N=C(\S)N1CCN(c2ccccn2)CC1)c1ncccn1 | 90% | 81.7% | – | – | 90% | – | 96.5% | 89.4% | 28.3% | – | 12.6% | 79.3% | 18.5% | 60.1% | 48.4% | 31.7% | 18.4%
7 | – | C/C(=N/NC(=S)N1CCN(c2ccccn2)CC1)c1ccccn1 | – | – | – | – | – | – | 100% | 12.8% | 13.8% | – | 24.6% | 100% | 19.7% | – | – | – | –
8 | – | C/C(=N/N=C(\S)Nc1ccc(C)cc1)c1cccs1 | 15% | 9.6% | 8.8% | 67.8% | 33.9% | 8.4% | 9.2% | 5.7% | 10.8% | 0% | – | – | – | – | – | – | –
9 | – | C/C(=N/N=C(\S)Nc1ccc([N+](=O)[O-])cc1)c1cccs1 | 8.3% | 14.5% | 9.1% | 51.7% | 35.7% | 8.6% | 0% | 2.1% | 3.6% | 10.3% | – | – | – | – | – | – | –
10 | – | C/C(=N/N=C(\S)N1CCN(c2ccccn2)CC1)c1ccc(Cl)cc1 | – | – | – | – | – | – | 0% | 0% | 0% | – | 0.8% | 0% | 0% | – | – | – | –
11 | – | C/C(=N/N=C(\S)N1CCN(c2ccccn2)CC1)c1ccc(N)cc1 | – | – | – | – | – | – | 30.3% | 4.6% | 12.1% | – | 0% | 46.8% | 0% | – | – | – | –
12 | – | C/C(=N/N=C(\S)N1CCN(c2ccccn2)CC1)c1ccccc1 | – | – | – | – | – | – | 4.6% | 0% | 0% | – | 0% | 0.8% | 0% | – | – | – | –
13 | – | C/C(=N/N=C(\S)Nc1ccccc1C)c1cccs1 | 5.5% | 0% | 7.1% | 73.5% | 41.6% | 91.9% | 1.3% | 0% | 5.9% | 0% | – | – | – | – | – | – | –
14 | – | C/C(=N/N=C(\S)Nc1cccc(Cl)c1)c1cccs1 | 0% | 0% | 0% | 86.8% | 39.7% | 51% | 6.5% | 3.7% | 8.3% | 0% | – | – | – | – | – | – | –
15 | – | CCn1cc(C(=O)O)c(=O)c2cc(F)c(N3CCN(/C(S)=N/N=C\c4ccccc4)CC3)cc21 | – | – | – | – | – | – | 68.8% | 4.6% | 0% | – | 0% | 4.1% | 0.8% | – | – | – | –
16 | – | C/C(=N/N=C(\S)N1CCN(c2ccccn2)CC1)c1ccco1 | – | – | – | – | – | – | 77.3% | 50% | 37.9% | – | 0% | 72.3% | 0% | – | – | – | –
17 | – | C/C(=N/N=C(\S)Nc1cc(Cl)cc(Cl)c1)c1cccs1 | 0% | 0% | 0% | 72.9% | 27.9% | 90.1% | 20.9% | 7% | 17.6% | 0% | – | – | – | – | – | – | –
18 | – | COc1ccc(/C(C)=N\N=C(/S)N2CCN(c3ccccn3)CC2)cc1 | – | – | – | – | – | – | 7.3% | 3.7% | 2.8% | – | 3.3% | 0.8% | 0% | – | – | – | –
19 | – | C/C(=N/N=C(\S)N1CCN(c2ccccn2)CC1)c1ccc(O)cc1 | – | – | – | – | – | – | 53% | 25.8% | 28.8% | – | 0% | 0% | 0% | – | – | – | –
20 | – | C/C(=N/N=C(\S)N1CCN(C2CCCCCC2)CC1)c1ccccn1 | – | – | – | – | – | – | 96.5% | 41.6% | 39.8% | – | 0% | 40% | 17.8% | – | – | – | –
21 | – | C/C(=N/N=C(\S)Nc1cccc2ccccc12)c1cccs1 | 13.5% | 16.5% | 20% | 55.9% | 24.3% | 30.3% | 4.3% | 7.2% | 0.9% | 0% | – | – | – | – | – | – | –
22 | – | CCn1cc(C(=O)O)c(=O)c2cc(F)c(N3CCN(/C(S)=N/N=C(/C)c4ccccn4)CC3)cc21 | – | – | – | – | – | – | 26.6% | 4.6% | 0% | – | 0% | 7.4% | 16.4% | – | – | – | –
23 | – | S=C(N/N=C\c1ccccc1)N1CCN(c2ccccn2)CC1 | – | – | – | – | – | – | 7.3% | 4.6% | 3.7% | – | 0.8% | 0% | 16.4% | – | – | – | –
24 | – | C/C(=N/N=C(\S)N1CCN(c2ccccn2)CC1)c1cccs1 | 7.2% | 1.6% | 12.8% | 96.4% | 94.9% | 100% | 0% | 15% | 0% | 0% | – | – | – | – | – | – | –
25 | – | C/C(=N/N=C(\S)N1CCN(c2ccccn2)CC1)c1ccc(C)cc1 | – | – | – | – | – | – | 25.8% | 21.2% | 28.8% | – | 0% | 0% | 0% | – | – | – | –
26 | – | C/C(=N/N=C(\S)Nc1ccccc1)c1cccs1 | 0% | 0% | 0% | 39.2% | 0% | 48% | 1.2% | 1.6% | 6.2% | 8.5% | – | – | – | – | – | – | –
